# Laboratory results taken from US7807714B2, “Fungicidal compositions” (Syngenta Crop Protection, Inc., priority 2006, dated 2010).
# Where “and” joins values, the source holds several entries; their conditions need not be identical. Equal values may be shown once. Read-outs that look alike come from different tables or passages of the source.
# Tests used:
# Assay type in all cases: cell-based
# Rhizoctonia Solani = assay: Activity against Rhizoctonia Solani (growth inhibition in PDB, microtiter plate, photometric); settings: 48 hrs
# Pyrenophora Graminea = assay: Activity against Pyrenophora Graminea (growth inhibition in PDB, microtiter plate, photometric); settings: 72 hrs
# Fusarium Graminearum = settings: 48 hrs
# Pythium Ultimum = assay: Activity against Pythium Ultimum (growth inhibition in PDB, microtiter plate, photometric); settings: 48 hrs
# Gäumannomyces Graminis = assay: Activity Against Gäumannomyces Graminis (growth inhibition in PDB, microtiter plate, photometric); settings: 72 hrs
# [1] = 0.0625 ppm (mg active ingredient/liter final medium)
# [2] = 0.125 ppm (mg active ingredient/liter final medium)
# [3] = 0.25 ppm (mg active ingredient/liter final medium)
# [4] = 0.0039 ppm (mg active ingredient/liter final medium)
# [5] = 0.0078 ppm (mg active ingredient/liter final medium)
# [6] = 0.03125 ppm (mg active ingredient/liter final medium)
# [7] = 1.0 ppm (mg active ingredient/liter final medium)
# [8] = 0.5 ppm (mg active ingredient/liter final medium)
compound,measurement,setting,value
Cn1cc(C(=O)Nc2ccccc2C2CC2C2CC2)c(C(F)F)n1 (racemic) [Cpd A],Observed control in % (% Cobs),Rhizoctonia Solani; [1],0%
same,Observed control in % (% Cobs),Rhizoctonia Solani; [2],22.8% and 23.0% and 29.3% and 40.2%
same,Observed control in % (% Cobs),Rhizoctonia Solani; [3],73.2%
same,Observed control in % (% Cobs),Pyrenophora Graminea; 0.002 ppm (mg active ingredient/liter final medium),0%
same,Observed control in % (% Cobs),Pyrenophora Graminea; [4],1.3% and 3.3%
same,Observed control in % (% Cobs),Pyrenophora Graminea; [5],0%
same,Observed control in % (% Cobs),Pyrenophora Graminea; 0.0156 ppm (mg active ingredient/liter final medium),0%
same,Observed control in % (% Cobs),Pyrenophora Graminea; [6],0% and 5.8%
same,Observed control in % (% Cobs),Pyrenophora Graminea; [1],4.0%
same,Observed control in % (% Cobs),Pyrenophora Graminea; [2],0%
same,Observed control in % (% Cobs),Pyrenophora Graminea; [7],0%
same,Observed control in % (% Cobs),Fusarium Graminearum; [6],0%
same,Observed control in % (% Cobs),Fusarium Graminearum; [1],2.0% and 4.2%
same,Observed control in % (% Cobs),Fusarium Graminearum; [2],3.5%
same,Observed control in % (% Cobs),Fusarium Graminearum; [3],10.5% and 4.0%
same,Observed control in % (% Cobs),Fusarium Graminearum; [8],9.3%
same,Observed control in % (% Cobs),Fusarium Graminearum; [7],6.6% and 5.8%
same,Observed control in % (% Cobs),Pythium Ultimum; [4],0%
same,Observed control in % (% Cobs),Pythium Ultimum; [5],0%
same,Observed control in % (% Cobs),Pythium Ultimum; [6],0%
same,Observed control in % (% Cobs),Gäumannomyces Graminis; [2],0%
same,Observed control in % (% Cobs),Gäumannomyces Graminis; [8],0%
same,Observed control in % (% Cobs),Gäumannomyces Graminis; [7],19.4%
